Several values for one entry are separate records, joined by “and”; a condition that tells them apart may be missing. Identical values can stand only once.
Assays:
[1] = molecular target: Glycogen synthase kinase-3 beta (Homo sapiens, UniProt P49841); assay: TR-FRET Assay
Method in brief: (§1)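 30 min preinc w/ cpd in assay buffer → kinase rxn → EDTA quench → add detection mix (40 nM SA-d2, 2 nM Tb-pSer641 Ab) → TR-FRET read.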

[2] = molecular target: Glycogen synthase kinase-3 alpha (Homo sapiens, UniProt P49840); assay: TR-FRET Assay
Glycogen synthase kinase-3 alpha, sequence (P49840 whole entry): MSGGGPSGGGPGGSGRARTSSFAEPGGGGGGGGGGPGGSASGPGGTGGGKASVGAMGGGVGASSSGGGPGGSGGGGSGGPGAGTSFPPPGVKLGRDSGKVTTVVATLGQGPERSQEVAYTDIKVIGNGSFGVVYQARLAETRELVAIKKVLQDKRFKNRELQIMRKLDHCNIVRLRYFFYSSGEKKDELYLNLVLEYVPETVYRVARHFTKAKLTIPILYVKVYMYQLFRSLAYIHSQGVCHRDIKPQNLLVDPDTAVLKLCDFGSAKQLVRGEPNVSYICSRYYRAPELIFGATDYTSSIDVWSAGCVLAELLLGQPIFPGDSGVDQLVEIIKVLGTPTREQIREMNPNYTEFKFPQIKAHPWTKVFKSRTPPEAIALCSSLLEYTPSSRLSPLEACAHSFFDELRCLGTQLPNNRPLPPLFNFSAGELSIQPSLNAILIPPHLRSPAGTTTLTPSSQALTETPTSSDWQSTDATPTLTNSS
Method in brief: as §1

Glycogen synthase kinase-3 beta, sequence (P49841 whole entry): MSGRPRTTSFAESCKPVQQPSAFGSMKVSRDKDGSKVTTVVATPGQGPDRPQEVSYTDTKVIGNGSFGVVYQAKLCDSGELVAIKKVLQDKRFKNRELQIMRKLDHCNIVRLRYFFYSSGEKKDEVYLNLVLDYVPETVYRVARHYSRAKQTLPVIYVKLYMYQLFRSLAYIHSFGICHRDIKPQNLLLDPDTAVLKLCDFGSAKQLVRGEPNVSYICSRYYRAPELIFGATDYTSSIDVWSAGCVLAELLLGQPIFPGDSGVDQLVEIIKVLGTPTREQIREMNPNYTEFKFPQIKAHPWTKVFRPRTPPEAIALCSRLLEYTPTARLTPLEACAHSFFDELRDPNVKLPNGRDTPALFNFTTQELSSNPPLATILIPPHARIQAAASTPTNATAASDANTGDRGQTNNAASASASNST

Structure (SMILES)	IC50 [1]	IC50 [2]
CC1(C)CC(=O)C2=C(C1)NC1=C(CN=N1)[C@@]21CCCN(S(=O)(=O)C2CC2)CC1 [US20250313563, Compound 932639]	0.1 to 1 µM	< 0.1 µM
Cn1ccc(S(=O)(=O)N2CCC[C@]3(CC2)C2=CN=NC2NC2=C3C(=O)CC(C)(C)C2)n1 (some centres undefined) [US20250313563, Compound 932640]	< 0.1 µM	< 0.1 µM
COc1ccc(S(=O)(=O)N2CCC[C@]3(CC2)C2=CN=NC2NC2=C3C(=O)CC(C)(C)C2)cc1 (some centres undefined) [US20250313563, Compound 932641]	0.1 to 1 µM	< 0.1 µM
CC[C@]1(c2cccc(N3CCOc4ncccc43)c2)C2=CN=NC2NC2=C1C(=O)CC(C)(C)C2 (some centres undefined) [US20250313563, Compound 932643]	1 to 5 µM	0.1 to 1 µM
CC[C@]1(c2cccc(N(C)c3cccc(C)n3)c2)C2=CN=NC2NC2=C1C(=O)CC(C)(C)C2 (some centres undefined) [US20250313563, Compound 932644]	> 5 µM	> 5 µM
CC[C@]1(c2cccc(N(C)c3ccnc(C)c3)c2)C2=CN=NC2NC2=C1C(=O)CC(C)(C)C2 (some centres undefined) [US20250313563, Compound 932645]	1 to 5 µM	0.1 to 1 µM
CC[C@]1(c2cccc(N(C)c3cccc(OC)n3)c2)C2=CN=NC2NC2=C1C(=O)CC(C)(C)C2 (some centres undefined) [US20250313563, Compound 932646]	> 5 µM	> 5 µM
CC[C@]1(c2cccc(N(C)c3ccc(F)nc3)c2)C2=CN=NC2NC2=C1C(=O)CC(C)(C)C2 (some centres undefined) [US20250313563, Compound 932647]	0.1 to 1 µM	< 0.1 µM
Cn1nccc1S(=O)(=O)N1CC2(C1)C1=C(N=NC1)NC1=C2C(=O)CC(C)(C)C1 [US20250313563, Compound 932648]	< 0.1 µM	< 0.1 µM
Cn1nccc1S(=O)(=O)N1CCC2(CC1)C1=C(N=NC1)NC1=C2C(=O)CC(C)(C)C1 [US20250313563, Compound 932649]	< 0.1 µM	< 0.1 µM
CC(C)N1CC2(C1)C1=C(N=NC1)NC1=C2C(=O)CC(C)(C)C1 [US20250313563, Compound 932650]	> 5 µM	> 5 µM
CC1(C)CC(=O)C2=C(C1)NC1=C(CN=N1)C21CN(C2CCOCC2)C1 [US20250313563, Compound 932651]	> 5 µM	> 5 µM
Cn1ccc(CN2CC3(C2)C2=C(N=NC2)NC2=C3C(=O)CC(C)(C)C2)n1 [US20250313563, Compound 932652]	> 5 µM	> 5 µM
Cn1nccc1CN1CC2(C1)C1=C(N=NC1)NC1=C2C(=O)CC(C)(C)C1 [US20250313563, Compound 932653]	> 5 µM	1 to 5 µM
CC1(C)CC(=O)C2=C(C1)NC1=C(CN=N1)C21CN(Cc2cnc3ccccn23)C1 [US20250313563, Compound 932654]	> 5 µM	> 5 µM
CC[C@@]1(c2cccc(N3CCOc4ccccc43)c2)C2=CN=NC2NC2=C1C(=O)CC(C)(C)C2 (some centres undefined) [US20250313563, Compound 932655]	< 0.1 µM	< 0.1 µM
CC[C@@]1(c2cccc(N(C)c3cccc(C)n3)c2)C2=CN=NC2NC2=C1C(=O)CC(C)(C)C2 (some centres undefined) [US20250313563, Compound 932656]	> 5 µM	> 5 µM
CC[C@@]1(c2cccc(-c3ccnc(C)c3)c2)C2=CN=NC2NC2=C1C(=O)C[C@H](C)C2 (some centres undefined) [US20250313563, Compound 932657]	1 to 5 µM	< 0.1 µM
CC[C@]1(c2cccc(-c3ccnc(C)c3)c2)C2=CN=NC2NC2=C1C(=O)N[C@@H](C)C2 (some centres undefined) [US20250313563, Compound 932658]	0.1 to 1 µM	< 0.1 µM
CC1(C)CC(=O)C2=C(C1)NC1=C(CN=N1)[C@]21CCCN(S(=O)(=O)C2CC2)CC1 [US20250313563, Compound 932659]	0.1 to 1 µM	< 0.1 µM
Cn1ccc(S(=O)(=O)N2CCC[C@@]3(CC2)C2=CN=NC2NC2=C3C(=O)CC(C)(C)C2)n1 (some centres undefined) [US20250313563, Compound 932660]	0.1 to 1 µM	< 0.1 µM
COc1ccc(S(=O)(=O)N2CCC[C@@]3(CC2)C2=CN=NC2NC2=C3C(=O)CC(C)(C)C2)cc1 (some centres undefined) [US20250313563, Compound 932661]	0.1 to 1 µM	< 0.1 µM
CC[C@@]1(c2cccc(N(C)c3ccnc(OC)c3)c2)C2=CN=NC2NC2=C1C(=O)CC(C)(C)C2 (some centres undefined) [US20250313563, Compound 932662]	> 5 µM	> 5 µM
CC[C@@]1(c2cccc(N(C)c3cccc(C)n3)c2)C2=CN=NC2NC2=C1C(=O)CC(C)(C)C2 (some centres undefined) [US20250313563, Compound 932664]	0.1 to 1 µM	< 0.1 µM
CC[C@@]1(c2cccc(CN(C)c3ccnc(C)c3)c2)C2=CN=NC2NC2=C1C(=O)CC(C)(C)C2 (some centres undefined) [US20250313563, Compound 932665]	> 5 µM	> 5 µM
CC[C@@]1(c2cccc(N(C)c3cccc(OC)n3)c2)C2=CN=NC2NC2=C1C(=O)CC(C)(C)C2 (some centres undefined) [US20250313563, Compound 932666]	0.1 to 1 µM	< 0.1 µM

Structure (SMILES)	IC50 [1]	IC50 [2]
CC[C@@]1(c2cccc(CN(C)c3ccc(F)nc3)c2)C2=CN=NC2NC2=C1C(=O)CC(C)(C)C2 (some centres undefined) [US20250313563, Compound 932667]	> 5 µM	> 5 µM
COC(=O)C1(c2ccccc2)CC2(C1)C1=C(N=NC1)NC1=C2C(=O)CC(C)(C)C1 (centres undefined) [US20250313563, Compound 942366]	< 0.1 µM	< 0.1 µM
CC1(C)CC(=O)C2=C(C1)NC1=C(CN=N1)[C@]21CCN(S(C)(=O)=O)C1 [US20250313563, Compound 942432]	< 0.1 µM	< 0.1 µM
CC1(C)CC(=O)C2=C(C1)NC1=C(CN=N1)[C@@]21CCN(S(C)(=O)=O)C1 [US20250313563, Compound 942462]	< 0.1 µM	< 0.1 µM
CCC1(c2cccc(N(C)c3nccc(C)n3)c2)C2=CN=NC2NC2=C1C(=O)CC(C)(C)C2 (centres undefined) [US20250313563, Compound 942642]	< 0.1 µM and 1 to 5 µM	< 0.1 µM
CCC1(c2cccc(-c3cc(C)nn3C)c2)C2=C(N=NC2)NC2=C1C(=O)NC(C)(C)C2 (centres undefined) [US20250313563, Compound 943371]	1 to 5 µM	< 0.1 µM
CC1(C)CC(=O)C2=C(C1)NC1=C(CN=N1)[C@]21CCN(S(=O)(=O)CC2CC2)C1 [US20250313563, Compound 943481]	< 0.1 µM and 0.1 to 1 µM	< 0.1 µM and 0.1 to 1 µM
CC1(C)CC(=O)C2=C(C1)NC1=C(CN=N1)[C@]21CCN(S(=O)(=O)C2CCCC2)C1 [US20250313563, Compound 943482]	< 0.1 µM and 0.1 to 1 µM	< 0.1 µM and 0.1 to 1 µM
Cn1cc(S(=O)(=O)N2CC[C@@]3(C2)C2=C(N=NC2)NC2=C3C(=O)CC(C)(C)C2)cn1 [US20250313563, Compound 943483]	< 0.1 µM	< 0.1 µM
Cn1ccc(S(=O)(=O)N2CC[C@@]3(C2)C2=C(N=NC2)NC2=C3C(=O)CC(C)(C)C2)n1 [US20250313563, Compound 943484]	< 0.1 µM and 1 to 5 µM	< 0.1 µM and 0.1 to 1 µM
CC1(C)CC(=O)C2=C(C1)NC1=C(CN=N1)[C@]21CCN(S(=O)(=O)c2ccccc2)C1 [US20250313563, Compound 943485]	< 0.1 µM and 1 to 5 µM	< 0.1 µM and 0.1 to 1 µM
COc1cccc(S(=O)(=O)N2CC[C@@]3(C2)C2=C(N=NC2)NC2=C3C(=O)CC(C)(C)C2)c1 [US20250313563, Compound 943486]	< 0.1 µM	< 0.1 µM
CC1(C)CC(=O)C2=C(C1)NC1=C(CN=N1)[C@]21CCN(S(=O)(=O)c2cccc(F)c2)C1 [US20250313563, Compound 943488]	< 0.1 µM	< 0.1 µM
Cc1cccc(S(=O)(=O)N2CC[C@@]3(C2)C2=C(N=NC2)NC2=C3C(=O)CC(C)(C)C2)c1 [US20250313563, Compound 943489]	< 0.1 µM	< 0.1 µM
CCC1(c2cccc(-c3cnnc(C)c3)c2)C2=CN=NC2NC2=C1C(=O)NC(C)(C)C2 (centres undefined) [US20250313563, Compound 943496]	1 to 5 µM	< 0.1 µM
CC[C@]1(c2cccc(-c3cc(C)ncc3C)c2)C2=CN=NC2NC2=C1C(=O)CC(C)(C)C2 (some centres undefined) [US20250313563, Compound 943514]	< 0.1 µM	< 0.1 µM
CC[C@@]1(c2cccc(-c3cc(C)ncc3C)c2)C2=CN=NC2NC2=C1C(=O)CC(C)(C)C2 (some centres undefined) [US20250313563, Compound 943515]	> 5 µM	1 to 5 µM
CC[C@@]1(c2cccc(-c3ccncc3F)c2)C2=CN=NC2NC2=C1C(=O)CC(C)(C)C2 (some centres undefined) [US20250313563, Compound 943519]	1 to 5 µM	0.1 to 1 µM
CCC1(c2cccc(-c3cnc(C)n3C)c2)C2=CN=NC2NC2=C1C(=O)CC(C)(C)C2 (centres undefined) [US20250313563, Compound 943531]	0.1 to 1 µM and > 5 µM	< 0.1 µM and 0.1 to 1 µM
CCC1(c2cccc(-c3ncnn3C)c2)C2=CN=NC2NC2=C1C(=O)CC(C)(C)C2 (centres undefined) [US20250313563, Compound 943532]	0.1 to 1 µM	< 0.1 µM
CCC1(c2cccc(-c3cncn3C)c2)C2=CN=NC2NC2=C1C(=O)CC(C)(C)C2 (centres undefined) [US20250313563, Compound 943533]	< 0.1 µM	< 0.1 µM
CCC1(c2cccc(-c3ccnc4c3CCC4)c2)C2=CN=NC2NC2=C1C(=O)CC(C)(C)C2 (centres undefined) [US20250313563, Compound 943534]	< 0.1 µM	< 0.1 µM
CCC1(c2cccc(-c3cnc4n3CCCC4)c2)C2=CN=NC2NC2=C1C(=O)CC(C)(C)C2 (centres undefined) [US20250313563, Compound 943535]	< 0.1 µM	< 0.1 µM
CCC1(c2cccc(-c3ccnc(C(C)(C)O)c3)c2)C2=CN=NC2NC2=C1C(=O)CC(C)(C)C2 (centres undefined) [US20250313563, Compound 943536]	1 to 5 µM	< 0.1 µM
CCC1(c2cccc(N(C)c3cc(C)ccn3)c2)C2=CN=NC2NC2=C1C(=O)CC(C)(C)C2 (centres undefined) [US20250313563, Compound 943537]	0.1 to 1 µM	< 0.1 µM
CCC1(c2cccc(N(C)c3cc(C)cc(C)n3)c2)C2=CN=NC2NC2=C1C(=O)CC(C)(C)C2 (centres undefined) [US20250313563, Compound 943538]	0.1 to 1 µM	< 0.1 µM
